The source of these data is patent US10377773B2, “Isothiazolopyrimidinones, pyrazolopyrimidinones, and pyrrolopyrimidinones as ubiquitin-specific protease 7 inhibitors” (FORMA Therapeutics, Inc., priority 2015, dated 2019).

pIC50: −log10 of the molar value. Bounds are passed on as bounds.

For this assay, the target named is T1, USP7 (Homo sapiens, UniProt Q93009).
T1 construct: USP7, construct USP7 (208-1102) 6*His, Viva Biotech; initiator Met (N); TEV site (C); 6*His (C); purchased Viva Biotech
T1 sequence (Q93009 208-1102): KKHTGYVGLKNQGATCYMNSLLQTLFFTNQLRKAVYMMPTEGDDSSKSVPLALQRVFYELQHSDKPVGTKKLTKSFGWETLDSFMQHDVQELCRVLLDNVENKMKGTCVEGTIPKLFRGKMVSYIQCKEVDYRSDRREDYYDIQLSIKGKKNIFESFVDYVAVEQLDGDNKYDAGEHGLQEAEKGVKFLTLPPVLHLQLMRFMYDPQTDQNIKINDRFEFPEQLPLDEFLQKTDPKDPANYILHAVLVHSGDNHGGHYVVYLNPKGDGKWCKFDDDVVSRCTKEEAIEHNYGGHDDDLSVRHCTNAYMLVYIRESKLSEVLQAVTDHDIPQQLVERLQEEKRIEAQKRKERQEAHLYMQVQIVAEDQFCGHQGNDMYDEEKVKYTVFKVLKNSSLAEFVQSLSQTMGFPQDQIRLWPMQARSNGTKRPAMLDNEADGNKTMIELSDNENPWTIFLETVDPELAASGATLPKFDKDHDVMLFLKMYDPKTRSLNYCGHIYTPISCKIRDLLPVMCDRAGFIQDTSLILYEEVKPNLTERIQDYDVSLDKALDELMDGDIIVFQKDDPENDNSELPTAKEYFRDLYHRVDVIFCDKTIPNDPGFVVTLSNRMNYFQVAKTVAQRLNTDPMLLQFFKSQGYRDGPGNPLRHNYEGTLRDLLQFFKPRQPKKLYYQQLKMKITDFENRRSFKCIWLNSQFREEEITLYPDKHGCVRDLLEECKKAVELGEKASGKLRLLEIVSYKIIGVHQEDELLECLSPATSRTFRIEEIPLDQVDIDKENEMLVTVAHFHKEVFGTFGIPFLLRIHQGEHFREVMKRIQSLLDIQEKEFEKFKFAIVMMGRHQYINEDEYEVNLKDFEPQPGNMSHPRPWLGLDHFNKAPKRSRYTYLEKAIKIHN
In words: USP7 Assay A and B (Ubiquitin-Rhodamine 110 assay). It is filed as biochemical. To be noted: Ub-Rh110 substrate 25 nM, read-out: USP7_IC50. The method, then:
Each assay was performed in a final volume of 15 μL in assay buffer containing 20 mM Tris-HCl (pH 8.0, (1M Tris-HCl, pH 8.0 solution; Corning 46-031-CM)), 1 mM GSH (L-Glutathione reduced; Sigma #G4251), 0.03% BGG (0.22 μM filtered, Sigma, #G7516-25G), and 0.01% Triton X-100 (Sigma, #T9284-10L). Nanoliter quantities of either an 8-point or 10-point, 3-fold serial dilution in DMSO was pre-dispensed into assay plates (Perkin Elmer, ProxiPlate-384 F Plus, #6008269) for a final test concentration range of either 25 μM to 11 nM or 25 μM to 1.3 nM, respectively. The final concentration of the enzyme (USP7, construct USP7 (208-1102) 6*His, Viva Biotech) in the assay was 62.5 pM. Final substrate (Ub-Rh110; Ubiquitin-Rhodamine 110, R&D Systems #U-555) concentration was 25 nM with [Ub-Rh110]<<Km. 5 μL of 2× enzyme was added to the assay plates (pre-stamped with compound) and preincubated with USP7 for 30 min. 5 μL of 2×Ub-Rh110 was then added to assay plates. Plates were incubated stacked for 20 min at room temperature before 5 μL of stop solution (final concentration of 10 mM citric acid in assay buffer (Sigma, #251275-500G)). Fluorescence was read on the Envision (Excitation at 485 nm and Emission at 535 nm; Perkin Elmer) or on the PheraSTAR (Excitation at 485 nm and Emission at 535 nm; BMG Labtech).
Each assay was performed in a final volume of 20 μL in assay buffer containing 20 mM Tris-HCl (pH 8.0, (1M Tris-HCl, pH 8.0 solution; Corning 46-031-CM)), 2 mM CaCl2 (1M calcium chloride solution; Sigma #21114), 1 mM GSH (L-Glutathione reduced; Sigma #G4251), 0.01% Prionex (0.22 μM filtered, Sigma #G-0411), and 0.01% Triton X-100. Stock compound solutions were stored at −20° C. as 10 mM in DMSO. Up to 1 month prior to the assay, 2 mM test compounds were pre-dispensed into assay plates (Black, low volume; Corning #3820) and frozen at −20° C. Prestamped assay plates were allowed to warm to room temperature on the day of the assay. For the screen, 100 nL of 2 mM was pre-dispensed for a final screening concentration of 10 μM (DMSO(fc)=0.5%). For follow-up studies, 250 nL of an 8-point, 3-fold serial dilution in DMSO was pre-dispensed into assay plates for a final test concentration of 25 μM-11 nM (1.25c % DMSO final concentration). Unless otherwise indicated, all follow-up assays were run on triplecate plates. Enzyme (USP7, construct Met (208-1102)-TEV-6*His; Viva Q93009-1) concentration and incubation times were optimized for the maximal signal-to-background while maintaining initial velocity conditions at a fixed substrate concentration. The final concentration of the enzyme in the assay was either 75 pM or 250 pM. Final substrate (Ub-Rh110; Ubiquitin-Rhodamine 110, R&D Systems (biotechne)#U-555) concentration was 25 nM with [Ub-Rh110]<<Km. Compounds were either not preincubated or preincubated with USP7 between 30 to 120 min prior to the addition of 10 μL of 2×Ub-Rh110 to compound plates. Plates were incubated stacked for either 23 or 45 min at room temperature before fluorescence was read on the Envision (Excitation at 485 nm and Emission at 535 nm; Perkin Elmer) or on the PheraSTAR (Excitation at 485 nm and Emission at 535 nm; BMG Labtech).
Data from USP7 Assays A and B were reported as percent inhibition (inh) compared with control wells based on the following equation: % inh=1−((FLU−AveLow)/(AveHigh−AveLow)) where FLU=measured Fluorescence, AveLow=average Fluorescence of no enzyme control (n=16), and AveHigh=average Fluorescence of DMSO control (n=16). IC50 values were determined by curve fitting of the standard 4 parameter logistic fitting algorithm included in the Activity Base software package: IDBS XE Designer Model205. Data was fitted using the Levenburg Marquardt algorithm.
Take `O=C(c1ccc(F)cc1)N1CCC(O)(Cn2cnc3c(-c4ccc(F)cc4)nsc3c2=O)CC1` [Compound I-30, 6-{[1-(4-fluorobenzoyl)-4-hydroxypiperidin-4-yl]methyl}-3-(4-fluorophenyl)-6H,7H-[1,2]thiazolo[4,5-d]pyrimidin-7-one]: the pIC50 is below 5.00.

In the case of `COc1ccc(C(=O)N2CCC(O)(Cn3cnc4c(-c5ccc(F)cc5)nsc4c3=O)CC2)cc1` [Compound I-3, 3-(4-fluorophenyl)-6-{[4-hydroxy-1-(4-methoxybenzoyl)piperidin-4-yl]methyl}-6H,7H-[1,2]thiazolo[4,5-d]pyrimidin-7-one], the pIC50 is 5.00 to 6.00.

As for `COc1ccc(-c2nsc3c(=O)n(CC4(O)CCN(C(=O)c5ccc(F)cc5)CC4)cnc23)cc1` [Compound I-2, 6-{[1-(4-fluorobenzoyl)-4-hydroxypiperidin-4-yl]methyl}-3-(4-methoxyphenyl)-6H,7H-[1,2]thiazolo[4,5-d]pyrimidin-7-one], the pIC50 is 5.00 to 6.00.

As for `O=C(c1ccc(F)cc1)N1CCC(O)(Cn2cnc3c(-c4ccc(CO)cc4)nsc3c2=O)CC1` [Compound I-23, 6-{[1-(4-fluorobenzoyl)-4-hydroxypiperidin-4-yl]methyl}-3-[4-(hydroxymethyl)phenyl]-6H,7H-[1,2]thiazolo[4,5-d]pyrimidin-7-one], the pIC50 is 5.00 to 6.00.

Consider `CC(CC(=O)N1CCC(O)(Cn2cnc3c(-c4ccccc4)nsc3c2=O)CC1)n1cccn1` (stereo not drawn) [Compound I-14, 6-({4-hydroxy-1-[3-(1H-pyrazol-1-yl)butanoyl]piperidin-4-yl}methyl)-3-phenyl-6H,7H-[1,2]thiazolo[4,5-d]pyrimidin-7-one], for which the pIC50 is 5.00 to 6.00.

Take `COc1ccc(C(=O)N2CCC(O)(Cn3cnc4c(-c5ccc(OC)cc5)n[nH]c4c3=O)CC2)cc1` [Compound I-21, 6-{[4-hydroxy-1-(4-methoxybenzoyl)piperidin-4-yl]methyl}-3-(4-methoxyphenyl)-1H,6H,7H-pyrazolo[4,3-d]pyrimidin-7-one]: the pIC50 is 6.00 to 6.30.

Turning to `O=C(c1ccccc1)N1CCC(O)(Cn2cnc3c(-c4ccccc4)n[nH]c3c2=O)CC1` [Compound I-29, 6-[(1-benzoyl-4-hydroxypiperidin-4-yl)methyl]-3-phenyl-1H,6H,7H-pyrazolo[4,3-d]pyrimidin-7-one], the pIC50 is 6.00 to 6.30.

With `C[C@H](CC(=O)N1CCC(O)(Cn2cnc3c(-c4ccccc4)nsc3c2=O)CC1)n1cccn1` [Compound I-16, 6-({4-hydroxy-1-[(3R)-3-(1H-pyrazol-1-yl)butanoyl]piperidin-4-yl}methyl)-3-phenyl-6H,7H-[1,2]thiazolo[4,5-d]pyrimidin-7-one], the pIC50 was 5.00 to 6.00.

For the molecule `COc1ccc(C(=O)N2CCC(O)(Cn3cnc4c(-c5ccc(F)cc5)n[nH]c4c3=O)CC2)cc1` [Compound I-20, 3-(4-fluorophenyl)-6-{[4-hydroxy-1-(4-methoxybenzoyl)piperidin-4-yl]methyl}-1H, 6H,7H-pyrazolo[4,3-d]pyrimidin-7-one], the pIC50 is 5.00 to 6.00.

As to `O=C(c1ccc(F)cc1)N1CCC(O)(Cn2cnc3c(-c4ccc(F)cc4)n[nH]c3c2=O)CC1` [Compound I-5, 6-{[1-(4-fluorobenzoyl)-4-hydroxypiperidin-4-yl]methyl}-3-(4-fluorophenyl)-1H,6H,7H-pyrazolo[4,3-d]pyrimidin-7-one], the pIC50 is 6.00 to 6.30.

Turning to `COc1ccc(C(=O)N2CCC(O)(Cn3cnc4c(-c5ccc(OC)cc5)nsc4c3=O)CC2)cc1` [Compound I-31, 6-{[4-hydroxy-1-(4-methoxybenzoyl)piperidin-4-yl]methyl}-3-(4-methoxyphenyl)-6H,7H-[1,2]thiazolo[4,5-d]pyrimidin-7-one], the pIC50 is 5.00 to 6.00.

Consider `O=C(c1ccc(F)cc1)N1CCC(O)(Cn2cnc3c(-c4cccc(CO)c4)nsc3c2=O)CC1` [Compound I-4, 6-{[1-(4-fluorobenzoyl)-4-hydroxypiperidin-4-yl]methyl}-3-[3-(hydroxymethyl)phenyl]-6H,7H-[1,2]thiazolo[4,5-d]pyrimidin-7-one], for which the pIC50 was 5.00 to 6.00.

For the molecule `COc1ccc(C(=O)N2CCC(O)(Cn3cnc4c(-c5ccccc5)n[nH]c4c3=O)CC2)cc1` [Compound I-7, 6-{[4-hydroxy-1-(4-methoxybenzoyl)piperidin-4-yl]methyl}-3-phenyl-1H,6H,7H-pyrazolo[4,3-d]pyrimidin-7-one], the pIC50 was 5.00 to 6.00.

Turning to `CN(C)C(=O)N1CCC(O)(Cn2cnc3c(-c4ccc(NCCN5CCCCC5)cc4)nsc3c2=O)CC1` [Compound I-26, 4-hydroxy-N,N-dimethyl-4-{[7-oxo-3-(4-{[2-(piperidin-1-yl)ethyl]amino}phenyl)-6H,7H-[1,2]thiazolo[4,5-d]pyrimidin-6-yl]methyl}piperidine-1-carboxamide], the pIC50 was 5.00 to 6.00.

With `O=C(CCC(F)(F)F)N1CCC(O)(Cn2cnc3c(-c4ccc(F)cc4)nsc3c2=O)CC1` [Compound I-25, 3-(4-fluorophenyl)-6-{[4-hydroxy-1-(4,4,4-trifluorobutanoyl)piperidin-4-yl]methyl}-6H,7H-[1,2]thiazolo[4,5-d]pyrimidin-7-one], the pIC50 was below 5.00.

`O=C(CC(c1ccccc1)C(F)F)N1CCC(O)(Cn2cnc3c(-c4ccccc4)nsc3c2=O)CC1` (stereo not drawn) [Compound I-17, 6-{[1-(4,4-difluoro-3-phenylbutanoyl)-4-hydroxypiperidin-4-yl]methyl}-3-phenyl-6H,7H-[1,2]thiazolo[4,5-d]pyrimidin-7-one]: the pIC50 is 5.00 to 6.00.

Consider `COc1ccc(C(=O)N2CCC(O)(Cn3cnc4c(-c5ccccc5)nsc4c3=O)CC2)cc1` [Compound I-8, 6-{[4-hydroxy-1-(4-methoxybenzoyl)piperidin-4-yl]methyl}-3-phenyl-6H,7H-[1,2]thiazolo[4,5-d]pyrimidin-7-one], for which the pIC50 is 5.00 to 6.00.

Take `O=C1NCCN1CCOc1cccc(-c2nsc3c(=O)n(CC4(O)CCN(C(=O)C5CC5)CC4)cnc23)c1` [Compound I-27, 1-[2-(3-{6-[(1-cyclopropanecarbonyl-4-hydroxypiperidin-4-yl)methyl]-7-oxo-6H,7H-[1,2]thiazolo[4,5-d]pyrimidin-3-yl}phenoxy)ethyl]imidazolidin-2-one]: the pIC50 was 5.00 to 6.00.

As to `O=C(C[C@H](c1ccccc1)C(F)F)N1CCC(O)(Cn2cnc3c(-c4ccccc4)nsc3c2=O)CC1` [Compound I-18, 6-({1-[(3R)-4,4-difluoro-3-phenylbutanoyl]-4-hydroxypiperidin-4-yl}methyl)-3-phenyl-6H,7H-[1,2]thiazolo[4,5-d]pyrimidin-7-one], the pIC50 is below 5.00.

As to `CN1CCN(c2ccc(C(=O)N3CCC(O)(Cn4cnc5c(-c6ccc(F)cc6)nsc5c4=O)CC3)nc2)CC1` [Compound I-10, 3-(4-fluorophenyl)-6-({4-hydroxy-1-[5-(4-methylpiperazin-1-yl)pyridine-2-carbonyl]piperidin-4-yl}methyl)-6H,7H-[1,2]thiazolo[4,5-d]pyrimidin-7-one], the pIC50 is below 5.00.

Regarding `COc1ccc(C(=O)N2CCC(O)(Cn3cnc4c(-c5ccc(CO)cc5)nsc4c3=O)CC2)cc1` [Compound I-24, 6-{[4-hydroxy-1-(4-methoxybenzoyl)piperidin-4-yl]methyl}-3-[4-(hydroxymethyl)phenyl]-6H,7H-[1,2]thiazolo[4,5-d]pyrimidin-7-one], the pIC50 was 5.00 to 6.00.
